Experimental data reported in BindingDB's records for doi:10.1016/j.bmcl.2016.04.030 (Galecto Biotech, 2016).

Legend:
[1] = Antagonist activity at P2Y12 receptor in human platelets assessed as inhibition of ADP-induced platelet aggregation by turbidimetric method
[2] = Antagonist activity at P2Y12 receptor in human platelets assessed as inhibition of ADP-induced platelet aggregation by microplate reader analysis

Row | IC50 [1] [µM] | IC50 [2] [µM] | SMILES
1 | 0.0025 |  | CCCSc1nc(N)c2ncn([C@@H]3O[C@H](COP(=O)(O)OP(=O)(O)C(Cl)(Cl)P(=O)(O)O)[C@@H](O)[C@H]3O)c2n1
2 | 316 |  | Nc1ncnc2c1ncn2[C@@H]1O[C@H](COP(=O)(O)OP(=O)(O)C(Cl)(Cl)P(=O)(O)O)[C@@H](O)[C@H]1O
3 | 0.000794 |  | O=P(O)(OC[C@H]1O[C@@H](n2cnc3c(NCC(F)(F)F)nc(SCCC(F)(F)F)nc32)[C@H](O)[C@@H]1O)OP(=O)(O)C(Cl)(Cl)P(=O)(O)O
4 |  | < 10 | CNc1cc2[nH]c(=O)n(-c3ccc(NC(=O)NS(=O)(=O)c4ccc(Cl)s4)cc3)c(=O)c2cc1F [ELINOGREL]

Row | SMILES | IC50 [1] [µM] | IC50 [2] [µM]
5 | Nc1ncnc2c1ncn2[C@@H]1O[C@H](CO[P@@](=O)(O)O[P@](=O)(O)OP(=O)(O)O)[C@@H](O)[C@H]1O [ATP] | 251 | 
